This passage reports EC50, AC50 and IC50 results from ChEMBL document CHEMBL1201862, “PubChem BioAssay data set” (2004).

The AC50 is the concentration at which the activity in the assay is half-maximal.

Calls of active or inactive are those of the source.

Some targets named below: Cytochrome P450 2C9 (Homo sapiens, UniProt P11712); Cytochrome P450 2D6 (Homo sapiens, UniProt P10635); Cytochrome P450 3A4 (Homo sapiens, UniProt P08684).
Test [1] concerns the target T1, Heat shock factor protein 1 (Mus musculus, UniProt P38532).
T1 sequence (P38532 whole entry): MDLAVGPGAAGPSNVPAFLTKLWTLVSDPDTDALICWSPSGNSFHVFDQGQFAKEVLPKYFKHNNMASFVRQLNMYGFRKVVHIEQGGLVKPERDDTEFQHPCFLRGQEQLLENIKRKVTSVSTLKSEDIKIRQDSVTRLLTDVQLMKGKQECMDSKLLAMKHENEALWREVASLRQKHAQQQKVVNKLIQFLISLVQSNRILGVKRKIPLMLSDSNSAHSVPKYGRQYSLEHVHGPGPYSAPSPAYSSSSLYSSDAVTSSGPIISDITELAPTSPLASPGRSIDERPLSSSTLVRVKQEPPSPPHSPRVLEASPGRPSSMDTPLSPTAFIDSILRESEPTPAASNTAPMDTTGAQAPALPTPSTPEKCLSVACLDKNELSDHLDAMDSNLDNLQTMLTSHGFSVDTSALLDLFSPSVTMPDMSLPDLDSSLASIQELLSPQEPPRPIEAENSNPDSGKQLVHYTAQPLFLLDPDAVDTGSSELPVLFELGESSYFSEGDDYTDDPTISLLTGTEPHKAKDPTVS
The test is described as follows: enhancement of HSF1-driven luciferase signal – cell-based, NIH3T3, luminescence, dose retest, confirmation (AID 435004).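 Note: stress induced by proteasome inhibitor MG132 added 30 min after compound; luciferase reporter driven by HSF1 response element in NIH3T3 cells; actives raise luminescence as potentiators of the MG132 stress response.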 Type of test: functional.

The target of a further test is T2, Cytochrome P450 1A2 (Homo sapiens, UniProt P05177).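 Note: PubChem cytochrome P450 panel assay, CYP1A2 panel member.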
T2 sequence (P05177 whole entry): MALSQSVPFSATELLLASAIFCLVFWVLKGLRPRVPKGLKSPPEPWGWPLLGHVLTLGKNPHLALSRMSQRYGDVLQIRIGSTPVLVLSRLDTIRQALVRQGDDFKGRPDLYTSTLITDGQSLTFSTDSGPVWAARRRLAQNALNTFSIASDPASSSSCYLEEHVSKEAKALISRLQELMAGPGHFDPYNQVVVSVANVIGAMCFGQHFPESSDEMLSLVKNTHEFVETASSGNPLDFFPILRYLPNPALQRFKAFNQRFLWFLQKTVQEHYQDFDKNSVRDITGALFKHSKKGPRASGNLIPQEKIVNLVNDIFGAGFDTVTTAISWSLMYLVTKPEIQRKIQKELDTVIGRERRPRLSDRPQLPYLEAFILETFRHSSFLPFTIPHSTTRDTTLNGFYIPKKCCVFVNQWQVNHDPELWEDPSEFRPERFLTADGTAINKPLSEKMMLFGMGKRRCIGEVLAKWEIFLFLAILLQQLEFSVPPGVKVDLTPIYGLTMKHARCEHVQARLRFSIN

A further test in a line: cells. Type of test: functional.
Test [2] has as its target T3, Corticotropin-releasing factor receptor 2/Corticotropin-releasing factor-binding protein (Homo sapiens, UniProt P24387+Q13324).
T3 sequence (Q13324 whole entry): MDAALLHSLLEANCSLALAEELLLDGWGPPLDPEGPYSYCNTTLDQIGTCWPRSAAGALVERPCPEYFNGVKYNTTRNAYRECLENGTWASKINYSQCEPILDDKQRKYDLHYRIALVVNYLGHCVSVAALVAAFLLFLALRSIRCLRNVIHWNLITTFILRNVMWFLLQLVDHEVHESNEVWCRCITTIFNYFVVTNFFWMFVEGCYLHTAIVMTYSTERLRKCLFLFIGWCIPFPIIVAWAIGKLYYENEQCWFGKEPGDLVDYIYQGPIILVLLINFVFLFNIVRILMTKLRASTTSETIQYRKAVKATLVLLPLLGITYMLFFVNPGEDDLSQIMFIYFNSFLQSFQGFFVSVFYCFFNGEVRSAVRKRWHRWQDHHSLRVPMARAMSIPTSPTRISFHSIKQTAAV
T3 sequence (P24387 whole entry): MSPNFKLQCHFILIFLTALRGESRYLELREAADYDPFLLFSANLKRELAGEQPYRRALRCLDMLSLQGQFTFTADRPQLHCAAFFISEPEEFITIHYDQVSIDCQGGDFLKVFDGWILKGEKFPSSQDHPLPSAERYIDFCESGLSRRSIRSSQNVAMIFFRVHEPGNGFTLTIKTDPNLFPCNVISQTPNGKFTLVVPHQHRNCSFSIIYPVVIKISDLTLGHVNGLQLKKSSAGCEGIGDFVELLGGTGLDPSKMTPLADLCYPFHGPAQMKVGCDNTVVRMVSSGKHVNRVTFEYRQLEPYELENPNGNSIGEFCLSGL
The test can be described thus: activators of CRF receptor 2 with binding protein – uHTS hits, confirmation (AID 602473). The test is classed as functional. The following applies: read-out: EC50_Mean.

Test [3] deals with T3, Corticotropin-releasing factor receptor 2/Corticotropin-releasing factor-binding protein. The test can be described thus: Dose Response confirmation of uHTS hits for small molecule antagonists of the CRF-binding protein and CRF-R2 receptor complex. The test is classed as functional. The conditions noted are these: read-out: IC50_Mean.
The target in another test is T4, Protein skinhead-1 (Caenorhabditis elegans, UniProt P34707).
T4 sequence (P34707 whole entry): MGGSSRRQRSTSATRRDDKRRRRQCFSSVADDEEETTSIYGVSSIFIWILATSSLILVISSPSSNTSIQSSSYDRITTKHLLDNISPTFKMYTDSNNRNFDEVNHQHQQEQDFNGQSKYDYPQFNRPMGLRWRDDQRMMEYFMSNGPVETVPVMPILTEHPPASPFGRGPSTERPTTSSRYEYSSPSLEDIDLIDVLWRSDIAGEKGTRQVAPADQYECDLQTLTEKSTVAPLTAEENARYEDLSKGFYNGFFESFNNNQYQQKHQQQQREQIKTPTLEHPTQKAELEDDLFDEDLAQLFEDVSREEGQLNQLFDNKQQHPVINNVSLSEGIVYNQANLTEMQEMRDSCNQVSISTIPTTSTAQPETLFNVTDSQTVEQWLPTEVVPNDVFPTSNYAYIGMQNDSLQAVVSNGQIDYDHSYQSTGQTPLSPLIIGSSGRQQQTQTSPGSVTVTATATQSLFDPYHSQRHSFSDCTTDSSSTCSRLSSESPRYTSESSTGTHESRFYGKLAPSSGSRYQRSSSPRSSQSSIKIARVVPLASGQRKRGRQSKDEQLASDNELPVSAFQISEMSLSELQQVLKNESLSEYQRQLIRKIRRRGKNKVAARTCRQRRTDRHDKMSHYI
Type of test: functional.

The test system of another test is H9c2. The test is described as follows: cells. The conditions noted are these: Rattus norvegicus, H9c2, Myocardium. The test is classed as functional, cell-based.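 Note: confirmatory concentration-response retest of ultra-high-throughput screening hits for modulation of myocardial damage; cell death induced by hydrogen peroxide oxidative stress; compound pretreatment for 60 min then peroxide exposure for 2 h; potency is for protecting the cells against peroxide damage rather than for killing them.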
Test [4] can be described thus: Luminescence Cell-Based Dose Retest to Confirm Inhibitors of Cancer Stem Cells. [Related pubchem assays (depositor defined):AID2717, AID2721]. The test is classed as functional. The conditions noted are these: Homo sapiens.

Sequence of Cytochrome P450 2C9 (P11712 whole entry): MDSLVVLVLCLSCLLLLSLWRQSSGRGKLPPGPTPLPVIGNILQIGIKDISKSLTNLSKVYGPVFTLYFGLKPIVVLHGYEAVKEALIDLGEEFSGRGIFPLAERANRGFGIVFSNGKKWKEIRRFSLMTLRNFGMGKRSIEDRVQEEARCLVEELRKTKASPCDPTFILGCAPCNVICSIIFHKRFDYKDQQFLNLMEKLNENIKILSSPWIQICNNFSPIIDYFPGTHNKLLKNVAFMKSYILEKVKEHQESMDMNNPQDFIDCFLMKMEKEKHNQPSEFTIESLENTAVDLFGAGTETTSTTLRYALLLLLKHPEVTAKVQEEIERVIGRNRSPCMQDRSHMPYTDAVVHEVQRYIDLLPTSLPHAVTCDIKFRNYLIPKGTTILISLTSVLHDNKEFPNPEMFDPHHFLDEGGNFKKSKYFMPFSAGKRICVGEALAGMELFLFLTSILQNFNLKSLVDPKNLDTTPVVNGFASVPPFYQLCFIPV
Sequence of Cytochrome P450 3A4 (P08684 whole entry): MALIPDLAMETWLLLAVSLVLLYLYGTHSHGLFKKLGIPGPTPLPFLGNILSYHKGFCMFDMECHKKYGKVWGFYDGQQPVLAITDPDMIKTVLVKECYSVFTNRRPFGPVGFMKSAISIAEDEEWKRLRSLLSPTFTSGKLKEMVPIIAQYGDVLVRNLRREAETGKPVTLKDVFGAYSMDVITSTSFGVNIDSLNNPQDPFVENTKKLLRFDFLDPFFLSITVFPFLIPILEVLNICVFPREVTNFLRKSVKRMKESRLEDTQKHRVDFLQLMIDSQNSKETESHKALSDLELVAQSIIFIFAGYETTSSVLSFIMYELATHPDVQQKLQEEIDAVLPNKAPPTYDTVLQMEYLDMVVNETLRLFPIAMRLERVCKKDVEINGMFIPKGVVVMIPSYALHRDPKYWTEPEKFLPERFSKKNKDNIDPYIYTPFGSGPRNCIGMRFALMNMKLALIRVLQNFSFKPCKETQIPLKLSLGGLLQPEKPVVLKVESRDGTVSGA
Sequence of Cytochrome P450 2D6 (P10635 whole entry): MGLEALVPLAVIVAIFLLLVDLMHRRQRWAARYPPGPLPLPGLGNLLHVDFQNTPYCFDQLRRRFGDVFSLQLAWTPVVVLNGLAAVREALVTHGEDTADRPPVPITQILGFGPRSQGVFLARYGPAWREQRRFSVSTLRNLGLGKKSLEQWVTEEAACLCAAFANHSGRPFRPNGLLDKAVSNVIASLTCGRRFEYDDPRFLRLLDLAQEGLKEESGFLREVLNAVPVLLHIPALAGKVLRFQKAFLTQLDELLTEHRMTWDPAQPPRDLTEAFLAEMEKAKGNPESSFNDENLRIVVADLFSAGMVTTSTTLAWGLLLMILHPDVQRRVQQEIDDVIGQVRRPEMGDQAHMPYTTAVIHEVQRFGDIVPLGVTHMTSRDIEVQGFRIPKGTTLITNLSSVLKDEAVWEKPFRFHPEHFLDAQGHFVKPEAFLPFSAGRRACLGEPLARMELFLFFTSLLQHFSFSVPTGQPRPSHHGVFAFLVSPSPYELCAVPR

With `CCC(C)NC(=O)CC(NS(=O)(=O)c1ccc(Cl)cc1)c1ccco1` (stereo not drawn), the EC50 in test [1] was > 260 µM (inactive).
As to `COC(=O)c1cc(/C=C/c2ccccc2)on1`, on Cytochrome P450 1A2, the AC50 is 2 µM (inconclusive). In the test “cells”, the IC50 is 5.44 µM (active).
`O=C(CSc1nc2ccccc2n1CCc1ccccc1)NC1CCS(=O)(=O)C1` (stereo not drawn): the EC50 in test [2] is > 53 µM (inactive). The IC50 in test [3] is > 47.1 µM (inactive).
Turning to `O=C(Nc1ccc(Cl)cc1)OCc1cc(-c2ccccc2)on1`, the AC50 at Cytochrome P450 2C9 was 2.82 µM (inconclusive); at Cytochrome P450 2D6 it was 3.98 µM (inconclusive).
With `Cc1ccc(C(=O)OCC(=O)N2CCCCCC2)c(O)c1`, the IC50 in the test “cells” was 11.1 µM (active).
Regarding `CCOc1ccc(S(=O)(=O)NCCSc2ccccc2)cc1`, the EC50 in [1] was > 260 µM (inactive).
With `CCOC(=O)CN1NC2(CCCC(C)C2)N=C1S` (stereo not drawn), the IC50 in “cells” was 48.9 µM (active).
Consider `Clc1ccc(Nc2ncnc3c2cnn3-c2ccccc2)cc1`, for which, on Protein skinhead-1, the IC50 is > 100 µM (inactive).
`CCOC(=O)C1CCN(C(=O)COc2cc(C)c(Br)c(C)c2)CC1`: the IC50 in “cells” was 30.2 µM (active).
In the case of `Cc1cccc(C)c1NCc1nnc(SCC(=O)Nc2nc(-c3ccccc3)cs2)n1-c1ccccc1`, the EC50 in [1] is > 260 µM (inactive).
With `O=[N+]([O-])c1ccc(Cc2nnc(O)c3ccccc23)cc1`, the IC50 at Protein skinhead-1 is > 100 µM (inactive); in the test with H9c2, > 79 µM (inactive).
Turning to `Cc1ccc(C(=O)N(C)CC(=O)Nc2ccc(N3CCOCC3)cc2)s1`, on Protein skinhead-1, the IC50 was > 100 µM (inactive).
With `COc1cc(/C=C/c2ccc3c([N+](=O)[O-])cccc3n2)ccc1OCC(=O)O`, the IC50 in “cells” was 2.39 µM (active).
As for `CC(=O)Oc1ccc(/C=C2\N=C(C3CCCCC3)OC2=O)cc1`, the IC50 in “cells” is 33.9 µM (active).
Turning to `Cc1ccc(N2Cc3ccccc3OC(C)C2=O)cc1` (stereo not drawn), the EC50 in [1] is > 260 µM (inactive).
In the case of `Cc1ccc(/C=C2\OC(=O)c3ccccc32)cc1`, at Cytochrome P450 2C9, the AC50 was 0.355 µM (inconclusive).
As for `COc1ccc([N+](=O)[O-])cc1NCc1ccccc1C`, the AC50 at Cytochrome P450 2C9 and at Cytochrome P450 2D6 was 17.8 µM (inconclusive) each time.
For `O=C(CCN1CCCCC1=O)NC1CCCN(Cc2ccc(Cl)cc2)C1` (stereo not drawn), in test [2], the EC50 was > 53 µM (inactive). For the same molecule, in test [3], the IC50 was > 47.1 µM (inactive).
For the molecule `CC(=O)CSc1nc2ccccc2s1`, on Protein skinhead-1, the IC50 was > 100 µM (inactive).
Turning to `COC(=O)C1=C(C)N(c2ccc(OC)cc2)C(C)=C(C(=O)OC)C1c1ccccc1`, the EC50 in [2] was > 53 µM (inactive). The IC50 in test [3] is > 47.1 µM (inactive).
For the molecule `CN(C)/C=C/C(=O)c1cccc(Oc2ncccn2)c1`, in test [1], the EC50 is > 260 µM (inactive).
As to `CC(C)(CN)CC(=O)O`, the EC50 in [1] is > 260 µM (inactive).
Consider `Cc1cccc(-c2noc(C(C)NC(=O)c3ccco3)n2)c1` (stereo not drawn), for which, in test [2], the EC50 was > 53 µM (inactive). Moreover, in test [3], the IC50 is > 47.1 µM (inactive).
As for `COC(=O)C(C)Sc1nc2c(c(=O)n(C)c(=O)n2C)n1CCC(C)C` (stereo not drawn), the EC50 in [1] is > 260 µM (inactive).
Regarding `O=[N+]([O-])c1cccc2ccc(/C=C/c3ccc(F)cc3)nc12`, the IC50 on Protein skinhead-1 was > 100 µM (inactive).
`O=C1CC(N(Cc2ccc3c(c2)OCO3)C(=O)Nc2ccc(F)cc2)C(=O)N1c1ccccc1` (stereo not drawn): the EC50 in test [1] is > 260 µM (inactive).
On to `CC(/C=C/c1cccs1)=C\C(=O)O`, for which the EC50 in test [1] was > 260 µM (inactive).
Regarding `CCc1ccc(-n2c(SCC(=O)Nc3cc(C)[nH]n3)nc3nncc-3c2O)cc1`, the IC50 at Protein skinhead-1 was > 100 µM (inactive).
`CCOC(=O)C1=C(C)N=C(C)/C(=C(\O)OCC)C1c1sccc1C` (stereo not drawn): the AC50 at Cytochrome P450 2C9 was 0.891 µM (inconclusive).
In the case of `O=C(O)c1ccc2c(c1)CCCN2`, the IC50 on Protein skinhead-1 was > 100 µM (inactive).
Take `Cc1noc(C(F)(F)F)c1C(=O)NNC(=O)c1cccc(C(F)(F)F)c1`: the EC50 in test [2] was > 53 µM (inactive). In addition, the IC50 in [3] is > 47.1 µM (inactive).
On the same counts, the results for `Cc1ccc(-n2nc3c(c2NC(=O)c2ccc(OC(C)C)cc2)C[S+]([O-])C3)cc1` (stereo not drawn) are > 53 µM (inactive) and > 47.1 µM (inactive).
Consider `NC(=O)c1ccc([N+](=O)[O-])cc1SCc1ccccc1`, for which the AC50 on Cytochrome P450 2C9 was 28.2 µM (inconclusive); at Cytochrome P450 3A4, 12.6 µM (inconclusive).
For the molecule `COc1ccc(OC)c(-n2c(=O)c3ccccc3c3ccccc3c2=O)c1`, the EC50 in [1] was 30.2 µM (active).
Turning to `O=C1Nc2ccccc2C(O)(C(=O)NCc2ccco2)N1c1ccc(Cl)c(Cl)c1` (stereo not drawn), the IC50 at Protein skinhead-1 was > 100 µM (inactive).
For the molecule `Nc1cc2c(cc1Cl)-c1ccccc1C2`, the IC50 at Protein skinhead-1 was 52.5 µM (inactive).
`CC(C)N(C(=O)C[n+]1ccsc1N)c1ccccc1`: in [2], the EC50 was > 53 µM (inactive). The IC50 in test [3] is > 47.1 µM (inactive).
On to `COc1ccccc1C(=O)NCCC(=O)N1CCN(c2ccccc2O)CC1`, for which, in [2], the EC50 is > 53 µM (inactive). In addition, the IC50 in test [3] is > 47.1 µM (inactive).
For `Cc1cccn2c(/C=N/OCc3cccc(F)c3)c(-c3ccc(Cl)cc3)nc12`, the results for the AC50 (at Cytochrome P450 3A4; in test [4]) were 14.1 µM (inconclusive) and 4.13 µM (active), respectively. For the same molecule, the EC50 in test [2] is > 53 µM (inactive). Also, in [3], the IC50 was > 47.1 µM (inactive).
Regarding `C/C(=N\OCC(=O)Nc1ccc(F)c(F)c1F)c1cc2ccccc2o1`, the EC50 in [2] was > 53 µM (inactive). Besides, in test [3], the IC50 was > 47.1 µM (inactive).
Consider `O=[N+]([O-])c1ccc(/C=N/NS(=O)(=O)c2ccc(Cl)cc2)o1`, for which, in the test “cells”, the IC50 was 6.23 µM (active).
